Results published in patent publication US20250368625A1, “PIPERAZINES” (Grünenthal GmbH, priority 2024, published 2025).

Molecular target: T1, human SSTR4 (Homo sapiens, UniProt P31391)
T1 construct: expressed in transfected cells; host or cells: CHO-K1
Experiment: hSSTR4 cAMP assay (cAMP accumulation, LANCE Ultra cAMP kit, CHO-K1 human SSTR4 Gi cell line)
Format: cell-based
Conditions: functional agonism, forskolin 10 μM stimulated CHO-K1 human SSTR4 Gi cells, 30 min at 25° C., at least duplicate, averaged; read-out: hSSTR4 EC50
How it was run: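 CHO-K1 cells expressing human SSTR4 (Gi), pre-cultured 18-20 h or thawed and used directly, stimulated with 10 μM forskolin plus test agonist in concentration series, 30 min at 25° C. Lysate cAMP read by TR-FRET (Eu-cAMP tracer/ULight-anti-cAMP, 1 h, 25° C). Normalized to forskolin-only and forskolin+100 nM SST14 controls, 4-parameter fit; ≥duplicate, averaged.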

T1 sequence (P31391 whole entry): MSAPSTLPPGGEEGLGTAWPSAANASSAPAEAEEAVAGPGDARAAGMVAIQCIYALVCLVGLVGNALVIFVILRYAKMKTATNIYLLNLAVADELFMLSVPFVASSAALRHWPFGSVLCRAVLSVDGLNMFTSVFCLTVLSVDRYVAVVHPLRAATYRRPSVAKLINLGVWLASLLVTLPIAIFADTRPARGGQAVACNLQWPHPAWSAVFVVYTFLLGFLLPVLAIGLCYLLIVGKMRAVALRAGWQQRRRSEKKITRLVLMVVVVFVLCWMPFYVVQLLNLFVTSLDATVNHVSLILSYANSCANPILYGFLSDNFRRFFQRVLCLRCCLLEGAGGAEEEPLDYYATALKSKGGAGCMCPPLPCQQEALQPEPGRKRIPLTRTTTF

SMILES | EC50 [nM]
Cc1cccn2c(C(C)(C)NC(=O)[C@@H]3CN(C)CCN3)ncc12 [SC-043, (S)-4-methyl-N-(2-(8-methylimidazo[1,5-a]pyridin-3-yl)propan-2-yl)piperazine-2-carboxamide] | 350
Cc1cccn2c(C(C)(C)NC(=O)[C@@H]3CNCCN3Cc3ccc(C(F)(F)F)cc3)ncc12 [SC-028, (S)-N-(2-(8-methylimidazo[1,5-a]pyridin-3-yl)propan-2-yl)-1-(4-(trifluoromethyl)benzyl)piperazine-2-carboxamide] | 0.17
Cc1cccc2c(C(C)(C)NC(=O)[C@@H]3CNCCN3C)noc12 [SC-124, (S)-1-methyl-N-(2-(7-methylbenzo[d]isoxazol-3-yl)propan-2-yl)piperazine-2-carboxamide] | 4.7
Cc1cccn2c(C(C)(C)NC(=O)[C@@H]3CN(CC(F)F)CCN3)ncc12 [SC-050, (S)-4-(2,2-difluoroethyl)-N-(2-(8-methylimidazo[1,5-a]pyridin-3-yl)propan-2-yl)piperazine-2-carboxamide] | 8200
Cc1cccn2c(C(C)(C)NC(=O)[C@@H]3CNCCN3CC(C)(C)F)ncc12 [SC-018, (S)-1-(2-fluoro-2-methylpropyl)-N-(2-(8-methylimidazo[1,5-a]pyridin-3-yl)propan-2-yl)piperazine-2-carboxamide] | 1.2
Cc1cccn2c(C(C)(C)NC(=O)C3CNCCN3Cc3ccn(C)n3)ncc12 (racemic) [SC-006, rac-1-((1-methyl-1H-pyrazol-3-yl)methyl)-N-(2-(8-methylimidazo[1,5-a]pyridin-3-yl)propan-2-yl)piperazine-2-carboxamide] | 3.7
Cc1cccn2c(C(C)(C)NC(=O)[C@@H]3CN(CC4CCC4)CCN3)ncc12 [SC-068, (S)-4-(cyclobutylmethyl)-N-(2-(8-methylimidazo[1,5-a]pyridin-3-yl)propan-2-yl)piperazine-2-carboxamide] | 590
Cc1cccn2c(C(C)(C)NC(=O)[C@@H]3CN(C)CCN3CC3COC3)ncc12 [SC-048, (S)-4-methyl-N-(2-(8-methylimidazo[1,5-a]pyridin-3-yl)propan-2-yl)-1-(oxetan-3-ylmethyl)piperazine-2-carboxamide] | 9.2
Cc1cccn2c(C(C)(C)NC(=O)[C@@H]3CN(C)CCN3Cc3cnn(C)c3)ncc12 [SC-044, (S)-4-methyl-1-((1-methyl-1H-pyrazol-4-yl)methyl)-N-(2-(8-methylimidazo[1,5-a]pyridin-3-yl)propan-2-yl)piperazine-2-carboxamide] | 6.1
Cc1cccn2c(C(C)(C)NC(=O)[C@@H]3CNCCN3CC3CCC(F)(F)CC3)ncc12 [SC-087, (S)-1-((4,4-difluorocyclohexyl)methyl)-N-(2-(8-methylimidazo[1,5-a]pyridin-3-yl)propan-2-yl)piperazine-2-carboxamide] | 0.27
Cc1cccn2c(C(C)(C)NC(=O)[C@@H]3CNCCN3Cc3cnc(C(F)(F)F)nc3)ncc12 [SC-038, (S)-N-(2-(8-methylimidazo[1,5-a]pyridin-3-yl)propan-2-yl)-1-((2-(trifluoromethyl)pyrimidin-5-yl)methyl)piperazine-2-carboxamide] | 0.6
Cc1cccn2c(C(C)(C)NC(=O)[C@@H]3CN(Cc4ccccn4)CCN3)ncc12 [SC-060, (S)-N-(2-(8-methylimidazo[1,5-a]pyridin-3-yl)propan-2-yl)-4-(pyridin-2-ylmethyl)piperazine-2-carboxamide] | 1500
CN1CCNC[C@H]1C(=O)NC(C)(C)c1nnc2c(Cl)cccn12 [SC-125, (S)-N-(2-(8-chloro-[1,2,4]triazolo[4,3-a]pyridin-3-yl)propan-2-yl)-1-methylpiperazine-2-carboxamide] | 1110
Cc1cccn2c(C(C)(C)NC(=O)[C@@H]3CN(Cc4cnn(C)c4)CCN3)ncc12 [SC-071, (S)-4-((1-methyl-1H-pyrazol-4-yl)methyl)-N-(2-(8-methylimidazo[1,5-a]pyridin-3-yl)propan-2-yl)piperazine-2-carboxamide] | 540
CN1CCN[C@H](C(=O)NC(C)(C)c2ncc3c(Cl)cccn23)C1 [SC-105, (S)-N-(2-(8-chloroimidazo[1,5-a]pyridin-3-yl)propan-2-yl)-4-methylpiperazine-2-carboxamide] | 31
Cc1cccn2c(C(C)(C)NC(=O)[C@@H]3CNCCN3CC3(C)CCOCC3)ncc12 [SC-037, (S)-N-(2-(8-methylimidazo[1,5-a]pyridin-3-yl)propan-2-yl)-1-((4-methyltetrahydro-2H-pyran-4-yl)methyl)piperazine-2-carboxamide] | 1.7
CCN1CCNC[C@H]1C(=O)NC(C)(C)c1n[nH]c2c(C)cccc12 [SC-041, (S)-1-ethyl-N-(2-(7-methyl-1H-indazol-3-yl)propan-2-yl)piperazine-2-carboxamide] | 0.22

SMILES | EC50 [nM]
Cn1nc(C(C)(C)NC(=O)[C@@H]2CNCCN2CC(F)(F)F)c2ccccc21 [SC-102, (S)-N-(2-(1-methyl-1H-indazol-3-yl)propan-2-yl)-1-(2,2,2-trifluoroethyl)piperazine-2-carboxamide] | 0.84
Cc1cccc2c(C(C)(C)NC(=O)[C@@H]3CNCCN3C(C)C)n[nH]c12 [SC-040, (S)-1-isopropyl-N-(2-(7-methyl-1H-indazol-3-yl)propan-2-yl)piperazine-2-carboxamide] | 0.39
Cc1cccn2c(C(C)(C)NC(=O)[C@@H]3CN(CC(C)C)CCN3)ncc12 [SC-069, (S)-4-isobutyl-N-(2-(8-methylimidazo[1,5-a]pyridin-3-yl)propan-2-yl)piperazine-2-carboxamide] | 300
Cc1cccn2c(C(C)(C)NC(=O)[C@@H]3CNCCN3CC3(C(F)(F)F)CC3)ncc12 [SC-020, (S)-N-(2-(8-methylimidazo[1,5-a]pyridin-3-yl)propan-2-yl)-1-((1-(trifluoromethyl)cyclopropyl)methyl)piperazine-2-carboxamide] | 0.27
Cc1cc(CN2CCNC[C@H]2C(=O)NC(C)(C)c2ncc3c(C)cccn23)ccn1 [SC-091, (S)-N-(2-(8-methylimidazo[1,5-a]pyridin-3-yl)propan-2-yl)-1-((2-methylpyridin-4-yl)methyl)piperazine-2-carboxamide] | 0.06
Cc1cccn2c(C(C)(C)NC(=O)[C@@H]3CNCCN3C3CC(F)(F)C3)ncc12 [SC-021, (S)-1-(3,3-difluorocyclobutyl)-N-(2-(8-methylimidazo[1,5-a]pyridin-3-yl)propan-2-yl)piperazine-2-carboxamide] | 3.1
Cc1cccn2c(C(C)(C)NC(=O)[C@@H]3CNCCN3CC3CC(F)(F)C3)ncc12 [SC-089, (S)-1-((3,3-difluorocyclobutyl)methyl)-N-(2-(8-methylimidazo[1,5-a]pyridin-3-yl)propan-2-yl)piperazine-2-carboxamide] | 0.55
Cc1cccn2c(C(C)(C)NC(=O)[C@@H]3CN(C4CCC(F)(F)CC4)CCN3)ncc12 [SC-055, (S)-4-(4,4-difluorocyclohexyl)-N-(2-(8-methylimidazo[1,5-a]pyridin-3-yl)propan-2-yl)piperazine-2-carboxamide] | 8400
Cc1cccn2c(C(C)(C)NC(=O)[C@@H]3CN(Cc4ccn(C)n4)CCN3)ncc12 [SC-066, (S)-4-((1-methyl-1H-pyrazol-3-yl)methyl)-N-(2-(8-methylimidazo[1,5-a]pyridin-3-yl)propan-2-yl)piperazine-2-carboxamide] | 1600
Cc1cccn2c(C(C)(C)NC(=O)C3CNCCN3Cc3ccccn3)ncc12 (racemic) [SC-003, rac-N-(2-(8-methylimidazo[1,5-a]pyridin-3-yl)propan-2-yl)-1-(pyridin-2-ylmethyl)piperazine-2-carboxamide] | 3.3
Cc1cccn2c(C(C)(C)NC(=O)[C@@H]3CN(Cc4cc(C(F)(F)F)nn4C)CCN3)ncc12 [SC-064, (S)-4-((1-methyl-3-(trifluoromethyl)-1H-pyrazol-5-yl)methyl)-N-(2-(8-methylimidazo[1,5-a]pyridin-3-yl)propan-2-yl)piperazine-2-carboxamide] | 13000
Cc1cccn2c(C(C)(C)NC(=O)[C@@H]3CN(C(=O)CC4CCOCC4)CCN3)ncc12 [SC-079, (S)-N-(2-(8-methylimidazo[1,5-a]pyridin-3-yl)propan-2-yl)-4-(2-(tetrahydro-2H-pyran-4-yl)acetyl)piperazine-2-carboxamide] | 15000
Cn1cc(CN2CCNC[C@H]2C(=O)NC(C)(C)c2ncc3c(C(F)(F)F)cccn23)cn1 [SC-111, (S)-1-((1-methyl-1H-pyrazol-4-yl)methyl)-N-(2-(8-(trifluoromethyl)imidazo[1,5-a]pyridin-3-yl)propan-2-yl)piperazine-2-carboxamide] | 94
Cc1cccc2c(C(C)(C)NC(=O)[C@@H]3CNCCN3CC3CCOCC3)n[nH]c12 [SC-096, (S)-N-(2-(7-methyl-1H-indazol-3-yl)propan-2-yl)-1-((tetrahydro-2H-pyran-4-yl)methyl)piperazine-2-carboxamide] | 0.46
Cc1cccn2c(C(C)(C)NC(=O)[C@@H]3CNCCN3Cc3cccc(C(F)(F)F)c3)ncc12 [SC-025, (S)-N-(2-(8-methylimidazo[1,5-a]pyridin-3-yl)propan-2-yl)-1-(3-(trifluoromethyl)benzyl)piperazine-2-carboxamide] | 0.05
Cc1cccn2c(C(C)(C)NC(=O)C3CNCCN3C(=O)C3COC3)ncc12 (racemic) [SC-013, rac-N-(2-(8-methylimidazo[1,5-a]pyridin-3-yl)propan-2-yl)-1-(oxetane-3-carbonyl)piperazine-2-carboxamide] | 350
Cc1cccn2c(C(C)(C)NC(=O)[C@@H]3CN(C4COC4)CCN3)ncc12 [SC-075, (S)-N-(2-(8-methylimidazo[1,5-a]pyridin-3-yl)propan-2-yl)-4-(oxetan-3-yl)piperazine-2-carboxamide] | 620
